Assay results published in patent US9499823B2, “Constructs expressing chimeric receptors and use thereof for the controlled activation of defence response to pathogens in plants” (priority 2009, dated 2016).
Entries after “also recorded” stand apart in the source; their conditions may differ.

B1: WEG: chimeric receptor: WAK1 ectodomain fused to the TM-iJM-kinase portion of EFR, GFP-fused (protein)
chain: QHQPGENCQNKCGNITIEYPFGISSGCYYPGNESFSITCKEDRPHVLSDIEVANFNHSGQLQVLLNRSSTCYDEQGKKTEEDSSFTLENLSLSANNKLTAVGCNALSLLDTFGMQNYSTACLSLCDSPPEADGECNGRGCCRVDVSAPLDSYTFETTSGRIKHMTSFHDFSPCTYAFLVEDDKFNFSSTEDLLNLRNVMRFPVLLDWSVGNQTCEQVGSTSICGGNSTCLDSTPRNGYICRCNEGFDGNPYLSAGCQDVNECTTSSTIHRHNCSDPKTCRNKVGGFYCKCQSGYRLDTTTMSCKRKEVVSGICIGIASLLLIIIVASLCWFMKRKKKNNASDGNPSDSTTLGMFHEKVSYEELHSATSRFSSTNLIGSGNFGNVFKGLLGPENKLVAVKVLNLLKHGATKSFMAECETFKGIRHRNLVKLITVCSSLDSEGNDFRALVYEFMPKGSLDMWLQLEDLERVNDHSRSLTPAEKLNIAIDVASALEYLHVHCHDPVAHCDIKPSNILLDDDLTAHVSDFGLAQLLYKYDRESFLNQFSSAGVRGTIGYAAPEYGMGGQPSIQGDVYSFGILLLEMFSGKKPTDESFAGDYNLHSYTKSILSGCTSSGGSNAIDEGLRLVLQVGIKCSEEYPRDRMRTDEAVRELISIRSKFFSSKTTITESPRDAPQSSPQEWMLNTDMHTM
modifications: left off: large carriers
B2: EFR: Arabidopsis LRR receptor kinase Elongation Factor Tu Receptor (AT5G20480); GFP-fused control (protein)
chain: RFSNETDMQALLEFKSQVSENNKREVLASWNHSSPFCNWIGVTCGRRRERVISLNLGGFKLTGVISPSIGNLSFLRLLNLADNSFGSTIPQKVGRLFRLQYLNMSYNLLEGRIPSSLSNCSRLSTVDLSSNHLGHGVPSELGSLSKLAILDLSKNNLTGNFPASLGNLTSLQKLDFAYNQMRGEIPDEVARLTQMVFFQIALNSFSGGFPPALYNISSLESLSLADNSFSGNLRADFGYLLPNLRRLLLGTNQFTGAIPKTLANISSLERFDISSNYLSGSIPLSFGKLRNLWWLGIRNNSLGNNSSSGLEFIGAVANCTQLEYLDVGYNRLGGELPASIANLSTTLTSLFLGQNLISGTIPHDIGNLVSLQELSLETNMLSGELPVSFGKLLNLQVVDLYSNAISGEIPSYFGNMTRLQKLHLNSNSFHGRIPQSLGRCRYLLDLWMDTNRLNGTIPQEILQIPSLAYIDLSNNFLTGHFPEEVGKLELLVGLGASYNKLSGKMPQAIGGCLSMEFLFMQGNSFDGAIPDISRLVSLKNVDFSNNNLSGRIPRYLASLPSLRNLNLSMNKFEGRVPTTGVFRNATAVSVFGNTNICGGVREMQLKPCIVQASPRKRKPLSVRKKVVSGICIGIASLLLIIIVASLCWFMKRKKKNNASDGNPSDSTTLGMFHEKVSYEELHSATSRFSSTNLIGSGNFGNVFKGLLGPENKLVAVKVLNLLKHGATKSFMAECETFKGIRHRNLVKLITVCSSLDSEGNDFRALVYEFMPKGSLDMWLQLEDLERVNDHSRSLTPAEKLNIAIDVASALEYLHVHCHDPVAHCDIKPSNILLDDDLTAHVSDFGLAQLLYKYDRESFLNQFSSAGVRGTIGYAAPEYGMGGQPSIQGDVYSFGILLLEMFSGKKPTDESFAGDYNLHSYTKSILSGCTSSGGSNAIDEGLRLVLQVGIKCSEEYPRDRMRTDEAVRELISIRSKFFSSKTTITESPRDAPQSSPQEWMLNTDMHTM

What was measured:
[1] = tested on: agroinfiltrated leaves of the Arabidopsis bak1-4 mutant; assay: Receptor internalization in agroinfiltrated leaves of the Arabidopsis bak1-4 mutant; assay type: cell-based, Arabidopsis thaliana; settings: 10 μM flg22, 30 min
Protocol: D) Relative variation of fluorescence in agroinfiltrated leaves of the Arabidopsis bak1-4 mutant expressing the indicated receptors and treated for 30 min with 10 μM flg22. Each value was normalised against fluorescence measured after 10 min of stimulation.
The GFP-dependent fluorescence was monitored from 2 to 4 days post infection in cells of the lower epidermis. Pieces of leaf were randomly cut from the infected area and mounted in water or supplemented with elicitors for microscopic observations. Flg22 and elfl8 were used at 10 μM while oligosaccharides were used at 100 μg/mL. Materials were analyzed using a Leica DM IRE epifluorescence microscope equipped with a digital cooled camera (DFC350FX R2; Leica). GFP fluorescence was excited with a 488-nm laser line, and emitted fluorescence was collected at 543-nm. The Leica Confocal Software and Adobe Photoshop 5.0 were used for post-acquisition image processing. All samples were imaged with the 40× or 100× oil objectives. Pictures were taken in Kahlman frame giving an average of 16 scans for the dynamics of internalization and 4 scans for the cellular localizations.
The authors also tested whether the presence of the LRR-RLK BAK1 (Nam & Li 2002), a protein required for flg22 and elfl8 signalling (Chinchilla et al., 2007), is also required for the internalization of eJMC induced by flg22.

[2] = tested on: Arabidopsis ecotype Wassilewskija (Ws-0) leaves; assay: H2O2 accumulation (DAB staining) and callose deposition (aniline blue) in stably transformed Arabidopsis Ws-0; assay type: cell-based, Arabidopsis thaliana; settings: flg22 1 μM, 1 h, stably transformed Ws-0 plants
Protocol: A) Histochemical analysis of defense responses upon 1 h of treatment with H2O, flg22 (1 μM) or elfl8 (10 μM).
(§1) 3,3′-diaminobenzidine (DAB) staining, callose deposition and gene resistance analysis were assayed as described (Galletti et al., 2008). For measuring active oxygen species released by tobacco agroinfiltrated plants after elicitor treatment, the authors used a modified luminol-dependent assay (Gomez et al., 1999). Slices, corresponding to approximately 30 mg fresh weight, were transferred to assay tubes containing 1 μM flg22 or 10 μM elfl8 in aqueous solution supplied with 40 μM luminol (SIGMA). Chemo-luminescence was measured in a liquid scintillation counter (LS-6500, Beckman) after 5 and 15 min upon addition of elicitors.
(§2) Fluorescent eJMC and FLS2 were also stably expressed in transgenic Arabidopsis ecotype Wassilewskija (Ws-0), which carries EFR but lacks a flg22 perception system (Gomez-Gomez et al., 1999, Bauer et al., 2001). Transformed T1 plants expressing the proteins, named eJMC plants and FLS2 plants, respectively, were selected by confocal microscopy analysis of adult rosette leaves. […] Fluorescence was detected only in adult rosette leaves, likely due to a low expression level of the receptor at the different developmental stages.

[3] = tested on: RetOx, CYP81F2 and PAD3 transcripts; assay: Elicitor-induced accumulation of Ret-Ox, CYP81F2 and PAD3 transcripts, semi-quantitative PCR; assay type: cell-based, Arabidopsis thaliana; settings: flg22 1 μM, 30 minutes, stably transformed Ws-0 plants
Protocol: B) Elicitor induced accumulation of Ret-Ox, CYP81F2 and PAD3 transcripts analysed by semi-quantitative PCR, using the UBQ5 gene for normalization. Leaves were incubated with water, flg22 (1 μM), elfl8 (10 μM) or a generic peptide (10 μM) for 30 minutes. The experiment was repeated three times with similar results. The same experiment was performed in a second independent transgenic line expressing eJMC with similar results.
as §1, §2

[4] = tested on: transgenic Arabidopsis Ws-0 seedlings; assay: Seedling growth inhibition by flg22 in transgenic Ws-0; assay type: in vivo, Arabidopsis thaliana; settings: data not shown
Source text: as §2

[5] = tested on: oxidative burst in tobacco leaves; assay: Oxidative burst, luminol-dependent photon counting in agroinfiltrated tobacco leaf slices; assay type: cell-based, Nicotiana tabacum; settings: 10 μM elfl8, after 15 min
Protocol: D) Oxidative burst in tobacco leaves transiently expressing eJMC, EFR and EWAK. Photon counting was realized using tobacco leaves slices in a solution of luminol and peroxidase, during treatment with 10 μM elfl8. eJMC- and EFR-expressing explants were used as a negative and a positive control, respectively. Experiment was repeated at least 6 times on two independent replicated.
(C) Oxidative burst in agroinfiltrated tobacco leaves expressing EWAK. Leaves expressing eJMC and EFR were used as a negative and a positive control, respectively. The burst was measured by photon counting using leaf slices incubated in a solution containing 10 μM elfl8, luminol and peroxidase. The experiment was repeated at least 6 times with two independent replicates.
as §1

[6] = tested on: Pectobacterium carotovorum subsp. carotovorum; assay: Infection assay with Pectobacterium carotovorum on transgenic Arabidopsis leaves; assay type: in vivo; settings: transgenic Arabidopsis vs Col-0 or Col-0 efr, 24 h, 5×10^7 CFU/ml
Protocol: Inoculum concentration was 5×10^7 CFU/ml). Values are means±SE of at least 16 lesions. Asterisks indicate statistically significant differences against control plants (Col-0 or Col-0 efr), according to Student's t test (*, p<0.0005).
Agrobacterium tumefaciens GV3101 strain infections was performed as described in Katagiri et al., (2002) and using a concentration of Agrobacterium corresponding at an OD600 of 1.0 in 10 mM MgCl2 and 600 μM acetosyringone. After 24 h of infiltration, serial dilution of Agrobacterium colonies were deposited on LB agar supplemented with gentamycin and rifampicin and grown for 2-3 days at 28° C. in the dark. At least 5 independent plants and 3 different leaves by plant, were used per experiment. Pectobacterium carotovorum subsp. carotovorum infections Pectobacterium carotovorum subsp. carotovorum (formely Erwinia carotovora; Gardan et al., 2003) (strain DMSZ 30169) was obtained from DSMZ GmbH (Germany). A liquid colture using 10 ml LB medium was prepared. […]
For infection, fully developed leaves of 4 week old Arabidopsis plants were detached and placed in 0.8% agar Petri dishes. […] Symptoms were scored measuring the area of macerated tissue after 24 hour post inoculation at 22° C. and 12 h photoperiod. Area was measured by ImageJ software. […]

| Molecule | internalization induced by flg22 in the bak1-4 mutant [1] | H2O2 production induced by flg22 [2] | callose deposition induced by flg22 [2] | expression of RetOx, CYP81F2 and PAD3 induced by flg22 [3] | growth inhibition of transgenic seedlings treated with flg22 [4] | oxidative burst upon treatment with elfl8 [5] | oxidative burst upon treatment with elfl8 ([5]; listed as eJM) | resistance to Pectobacterium carotovorum subsp. carotovorum [6] |
| --- | --- | --- | --- | --- | --- | --- | --- | --- |
| FLS2 [reference compound] | nearly abolished | induced | induced | induced | did not show growth inhibition |  |  |  |
| eJMC: chimera (Arg806FLS2-Val650EFR): LRR and eJM domains of FLS2 fused upstream of TM, iJM and kinase domains of EFR, GFP-fused | not affected | induced | induced | induced | did not show growth inhibition | not | did not show any significant response |  |
| B1 |  |  |  |  |  |  |  | increased resistance; also recorded: confers resistance |
| B2 |  |  |  |  |  | produced an oxidative burst; also recorded: robust oxidative burst |  |  |
